Literature values as cited in US5043107A, “Preparation small unilamellar vesicles including polyene antifungal antibiotics” (Vestar Research, Inc., priority 1989, dated 1991).

Legend:
[1] = Tremblay et al.
[2] = mammals; clinical use at therapeutic dose levels
[3] = in vivo

| Molecule | acute 50% lethal dose (LD50) [1] [mg/kg] | toxicity [2] | host toxicity [3] |
| --- | --- | --- | --- |
| C[C@@H]1[C@H](O)[C@@H](C)/C=C/C=C/C=C/C=C/C=C/C=C/C=C/[C@H](O[C@@H]2O[C@H](C)[C@@H](O)[C@H](N)[C@@H]2O)C[C@@H]2O[C@](O)(C[C@@H](O)C[C@@H](O)[C@H](O)CC[C@@H](O)C[C@@H](O)CC(=O)O[C@H]1C)C[C@H](O)[C@H]2C(=O)O [Amphotericin B, amphotericin B] | 2.3 | acute hemolytic crisis and eventual kidney failure |  |
| liposomal Amphotericin B |  |  | decreased host toxicity |
